Experimental data as given in patent US8114638B2, “Arabinitol dehydrogenase from Neurospora crassa” (The Board of Trustees of the University of Illinois, priority 2007, dated 2012).
Like-named read-outs stand apart in the source and are kept apart here. Marks after values point to notes of the source that are not given here.

Experiments:
[1] = molecular target: T1, N. crassa LAD (Neurospora crassa, UniProt Q7SI09); conditions: for % Activity: relative to L-arabinitol = 100, 50 mM Tris pH 8.0, saturated NAD+
Protocol: (§1) Initial rates were determined using a Varian Cary 100 Bio UV-visible spectrophotometer (Varian) at 25° C. in 50 mM Tris (pH 8.0). […] Kinetic measurements with substrate L-arabinitol and cofactor NAD^+ were taken in a 5-by-5 matrix format, with substrate and cofactor concentrations varied from below their Km to 10-fold higher than their Km. The kinetic data were analyzed with a modified version of Cleland's program (Cleland, W. W. (1979) Statistical analysis of enzyme kinetic data, Methods Enzymol 63, 103-138.). Vmax and Km for both L-arabinitol and NAD^+ were obtained by fitting the data to a sequential ordered mechanism with NAD^+ binding first, based on the proposed mechanism for sorbitol dehydrogenase (Lindstad et al. (1992) The kinetic mechanism of sheep liver sorbitol dehydrogenase, Eur J Biochem 210, 641-647.) v=VmaxAB/(KiaKB+KAB+KBA+AB) (EQ. 1)
where v is the initial velocity, Vmax is the maximum velocity, KA and KB are the Michaelis-Menten constants for NAD+ and L-arabinitol, respectively, A and B are the concentrations of NAD+ and L-arabinitol, respectively, and Kia is the dissociation constant for NAD+.
Kinetics. The data were used to calculate the kinetic constants for various substrates by fitting the Michaelis-Menten equation using Origin 5.0. […] The data represent averages of assays performed in duplicate or triplicate on two separate occasions.

[2] = molecular target: T1, N. crassa LAD; experiment: Cofactor specificity of N. crassa LAD by HPLC; type: biochemical; parameters: GST (glutathione S-transferase), with thrombin cleavage site (N, cleaved yes); made in house; host or cells: Escherichia coli BL21(DE3), vector pGEX-4T-3 (pGEX-lad1); conditions: 1 mM NAD(P)+, 25 mM L-arabinitol, 50 mM Tris pH 8.0, 20 min at 37° C., UV 340 nm
Protocol: The cofactor specificity of N. crassa LAD was examined by HPLC. The separation of NAD+, NADP+, NADH, and NADPH was carried out using standard methods. No discernible cross-contamination of oxidized cofactors was observed. 20 μL reaction mixtures consisting of equal parts of 1 mM NAD(P)+ and 25 mM L-arabinitol in 50 mM Tris (pH 8.0) were set up, and following addition of approximately 1 μg of enzyme, the reaction was allowed to proceed for 20 min at 37° C. […] This indicated the strong preference for NAD+ as the cofactor of N. crassa LAD.
HPLC analysis. The enzyme (1 μg) was incubated in a mixture of buffer and 25 mM L-arabinitol with 1 mM NAD(P)+ at 37° C. for 20 min. The sample was eluted on a Zorbax 3.0×150 mm C-18 (3.5 μm) column with a UV detector (Agilent 1100 series). The eluent consisted of two components: 0.1 M KH2PO4 containing 5 mM tetrabutylammonium hydrogen sulfate (pH 5.5) (buffer A) and 100% methanol (buffer B). The most suitable gradient was an initial isocratic step for 6 min at 93% buffer A, a gradient for 5 min from 7 to 30% buffer B, and a final isocratic step for 5 min at 30% buffer B.

[3] = LADs of other organisms, from references, cited from earlier work
[4] = Kinetic parameters of LAD from various source organisms; type: biochemical; conditions: greater
Protocol: as §1

[5] = 4° C. and freeze-thawing; cited from earlier work
[6] = with indicated substrate, 25° C., 50 mM Tris pH 8.0, saturated NAD+ (2 mM)

OC[C@@H](O)[C@H](O)[C@@H](O)CO [Xylitol, xylitol]
% Activity ([1]; 25° C.): 4.9%
kcat (mean ± SD) [1, 6]: 970 ± 40 min⁻¹

NC(=O)c1ccc[n+]([C@@H]2O[C@H](COP(=O)([O-])OP(=O)(O)OC[C@H]3O[C@@H](n4cnc5c(N)ncnc54)[C@H](OP(=O)(O)O)[C@@H]3O)[C@@H](O)[C@H]2O)c1 [NADP, NADP+]
reduced cofactor peak by HPLC (in words) [2]: a small yet detectable peak was observed with a retention time corresponding to an authentic sample of NADPH
activity as substrate or cofactor of N. crassa LAD (in words) ([1]; listed as NADP+): small yet detectable activity
activity as substrate or cofactor of N. crassa LAD (in words) ([1]; listed as NADP^+): very low yet detectable activity

OC[C@@H](O)[C@@H](O)[C@H](O)[C@@H](O)CO [D-Sorbitol, D-sorbitol]
activity as substrate or cofactor of N. crassa LAD (in words) [1]: No activity was observed
% Activity ([1]; 25° C.): 0^c %

OC[C@@H](O)[C@@H](O)[C@H](O)[C@H](O)CO [D-Mannitol, D-mannitol]
activity as substrate or cofactor of N. crassa LAD (in words) [1]: No activity was observed
% Activity ([1]; 25° C.): 0%

A. oryzae: L-arabinitol 4-dehydrogenase from Aspergillus oryzae (literature)
Specific activity [3]: 0.04 U/mg

A. niger: L-arabinitol 4-dehydrogenase from Aspergillus niger (literature)
Specific activity [3]: 96 U/mg
Km ([3]; read-out: Km,L-arabinitol): 89 mM
Km ([3]; read-out: Km,NAD+): 0.05 mM
specific activity relative to N. crassa LAD [4]: about 3 fold
stability of purified enzyme as reported (in words) [5]: highly unstable, with rapidly diminishing activity at 4° C., and complete loss of activity after freeze-thawing of the enzyme

H. jecorina: L-arabinitol 4-dehydrogenase from Hypocrea jecorina (literature; two table lines from different references)
kcat [3]: 0.85 s⁻¹
Km ([3]; read-out: Km,NAD+): 0.18 mM

NC(=O)c1ccc[n+]([C@@H]2O[C@H](COP(=O)([O-])OP(=O)(O)OC[C@H]3O[C@@H](n4cnc5c(N)ncnc54)[C@H](O)[C@@H]3O)[C@@H](O)[C@H]2O)c1 [NAD, NAD+]
reduced cofactor peak by HPLC (in words) [2]: a single peak (UV 340 nm) was observed that had the same retention time as authentic NADH
Km ([1]; read-out: Km for L-arabinitol (mean ± SD), with indicated coenzyme, 25° C., 50 mM Tris pH 8.0): 16 ± 3 mM
Km ([1]; read-out: Km for NAD(P) (mean ± SD), 25° C., 50 mM Tris pH 8.0, substrate L-arabinitol): 0.174 mM
kcat (mean ± SD) ([1]; with indicated coenzyme, 25° C., 50 mM Tris pH 8.0, substrate L-arabinitol): 1,206 ± 54 min^−1

OC[C@@H](O)C(O)[C@H](O)CO [D-Arabinitol, D-arabinitol]
activity as substrate or cofactor of N. crassa LAD (in words) [1]: No activity was observed
% Activity ([1]; 25° C.): 0%

OC[C@H](O)C(O)[C@@H](O)CO [L-Arabinitol, L-arabinitol]
Km ([1]; read-out: Km value for substrate): 16 mM
% Activity ([1]; 25° C.): 100%

OC[C@@H](O)[C@@H](O)[C@@H](O)CO [Adonitol, adonitol]
Km ([1]; read-out: Km (mean ± SD), with indicated substrate, 25° C., 50 mM Tris pH 8.0, saturated NAD+ (2 mM)): 35 ± 3 mM
% Activity ([1]; 25° C.): 46%
kcat (mean ± SD) [1, 6]: 1,080 ± 30 min^−1
